Measurements published in patent publication US10626144B2, “Peptide derivatives and uses thereof” (Nosopharm, priority 2014, dated 2020).
Where two headings read alike, the source gives them in different places. Square brackets hold non-standard residues; d marks the D form. Peptide text beside a SMILES is read from it. * marks the point of attachment. Phe(3,4-(OMe)2) = COc1ccc(C[C@H](N)C(=O)O)cc1OC; Phe(3-CONH2) = NC(=O)c1cccc(C[C@H](N)C(=O)O)c1; Abu(4,4,4-F3) = N[C@@H](CC(F)(F)F)C(=O)O; Phe(3-Cl) = N[C@@H](Cc1cccc(Cl)c1)C(=O)O; Phe(4-CN) = N#Cc1ccc(C[C@H](N)C(=O)O)cc1; Phe(4-F) = N[C@@H](Cc1ccc(F)cc1)C(=O)O; Dab(3S-OH) = NC[C@H](O)[C@H](N)C(=O)O; ΔZArg = N=C(N)NCC/C=C(\N)C(=O)O; dOrn = NCCC[C@@H](N)C(=O)O; Orn = NCCC[C@H](N)C(=O)O; Dab = NCC[C@H](N)C(=O)O; Nva = CCC[C@H](N)C(=O)O; Abu = CC[C@H](N)C(=O)O; NH(CH2)5NH2 = NCCCCCN*; NH(CH2)4NH2 = NCCCCN*

Assays:
[1] = tested on: Pseudomonas aeruginosa ATCC 27853; experiment: MIC, broth microdilution (CLSI), reference strain; settings: CAMHB
[2] = tested on: Staphylococcus aureus ATCC 13709; experiment: MIC, broth microdilution (CLSI), reference strain; settings: CAMHB
[3] = tested on: Escherichia coli ATCC 25922; experiment: MIC, broth microdilution (CLSI), reference strain; settings: CAMHB
[4] = tested on: Acinetobacter baumannii ATCC 19606; experiment: MIC, broth microdilution (CLSI), reference strain; settings: CAMHB
[5] = biological target: N-type calcium channels (Cav2.2) (Rattus norvegicus (Rat), UniProt Q02294); experiment: biochemical; format: binding; settings: rat cerebral cortex, [125I]ω-conotoxin GVIA 0.001 nM, read-out: IC50 Cav2.2
[6] = class symbol, 30 minutes at room temperature

| SMILES | Pa: MIC Pseudomonas aeruginosa ATCC 27853 [1] | Sa: MIC Staphylococcus aureus ATCC 13709 [2] | Ec: MIC Escherichia coli ATCC 25922 [3] | Ab: MIC Acinetobacter baumannii ATCC 19606 [4] | IC50 [5, 6] | IC50 ([5]; value in brackets) |
| --- | --- | --- | --- | --- | --- | --- |
| CC[C@H](NC(=O)[C@@H](NC(=O)[C@@H](N)CCCCN)[C@@H](O)CN)C(=O)NCC(=O)N[C@H](CCCN)C(=O)N1CCC[C@H]1C(=O)N[C@@H](Cc1cnc[nH]1)C(=O)N[C@@H](CCCCN)C(=O)N/C(=C\CCNC(=N)N)C(=O)O [28.2] (H-K[Dab(3S-OH)][Abu]G[dOrn]PHK[ΔZArg]-OH) | − (>32 μg/mL) | + (≤32 μg/mL) | − (>32 μg/mL) | − (>32 μg/mL) | > 300 nM |  |
| N=C(N)NCC/C=C(\NC(=O)[C@H](CCCCN)NC(=O)[C@H](Cc1c[nH]cn1)NC(=O)[C@@H]1CCCN1C(=O)[C@@H](CCCN)NC(=O)CNC(=O)[C@@H](NC(=O)[C@@H](NC(=O)[C@@H](N)CCCCN)[C@@H](O)CN)[C@@H](O)CN)C(=O)N[C@@H](CCCCN)C(=O)NCCCCN [Odilomycin C, reference compound] (H-K[Dab(3S-OH)][Dab(3S-OH)]G[dOrn]PHK[ΔZArg]K-{NH(CH2)4NH2}; N-terminus and C-terminus assumed) |  |  |  |  | < 30 nM | 9 nM |
| C[C@H](NC(=O)[C@@H](NC(=O)[C@@H](N)CCCCN)[C@@H](O)CN)C(=O)NCC(=O)N[C@H](CCCN)C(=O)N1CCC[C@H]1C(=O)N[C@@H](Cc1cccc(Cl)c1)C(=O)N[C@@H](CCCCN)C(=O)N/C(=C\CCNC(=N)N)C(=O)O [24.88] (H-K[Dab(3S-OH)]AG[dOrn]P[Phe(3-Cl)]K[ΔZArg]-OH) | − (>32 μg/mL) | ++ (≤8 μg/mL) | ++ (≤8 μg/mL) | − (>32 μg/mL) | > 300 nM |  |
| C[C@H](NC(=O)[C@@H]1CCCN1C(=O)[C@@H](CCCN)NC(=O)CNC(=O)[C@@H](NC(=O)[C@@H](NC(=O)[C@@H](N)CCCCN)[C@@H](O)CN)[C@@H](O)CN)C(=O)N[C@@H](CCCCN)C(=O)N/C(=C\CCNC(=N)N)C(=O)N[C@@H](CCCCN)C(=O)NCCCCN [22.4] (H-K[Dab(3S-OH)][Dab(3S-OH)]G[dOrn]PAK[ΔZArg]K-{NH(CH2)4NH2}) | + (≤32 μg/mL) | ++ (≤8 μg/mL) | ++ (≤8 μg/mL) | − (>32 μg/mL) | < 30 nM |  |
| N=C(N)NCC/C=C(\NC(=O)[C@H](CCCCN)NC(=O)[C@H](Cc1cccc(C(N)=O)c1)NC(=O)[C@@H]1CCCN1C(=O)[C@@H](CCCN)NC(=O)CNC(=O)[C@H](CCN)NC(=O)[C@@H](NC(=O)[C@@H](N)CCCCN)[C@@H](O)CN)C(=O)O [21.6] (H-K[Dab(3S-OH)][Dab]G[dOrn]P[Phe(3-CONH2)]K[ΔZArg]-OH) | − (>32 μg/mL) | ++ (≤8 μg/mL) | ++ (≤8 μg/mL) | − (>32 μg/mL) |  |  |
| N#Cc1ccc(C[C@H](NC(=O)[C@@H]2CCCN2C(=O)[C@@H](CCCN)NC(=O)CNC(=O)[C@H](CCCN)NC(=O)[C@@H](NC(=O)[C@@H](N)CCCCN)[C@@H](O)CN)C(=O)N[C@@H](CCCCN)C(=O)N/C(=C\CCNC(=N)N)C(=O)O)cc1 [211.6] (H-K[Dab(3S-OH)][Orn]G[dOrn]P[Phe(4-CN)]K[ΔZArg]-OH) | − (>32 μg/mL) | ++ (≤8 μg/mL) | ++ (≤8 μg/mL) | − (>32 μg/mL) |  |  |
| CCC[C@H](NC(=O)[C@@H](NC(=O)[C@@H](N)CCCCN)[C@@H](O)CN)C(=O)NCC(=O)N[C@H](CCCN)C(=O)N1CCC[C@H]1C(=O)N[C@@H](Cc1cnc[nH]1)C(=O)N[C@@H](CCCCN)C(=O)N/C(=C\CCNC(=N)N)C(=O)N[C@@H](CCCCN)C(=O)NCCCCN [210.1] (H-K[Dab(3S-OH)][Nva]G[dOrn]PHK[ΔZArg]K-{NH(CH2)4NH2}) | − (>32 μg/mL) | ++ (≤8 μg/mL) | − (>32 μg/mL) | − (>32 μg/mL) |  |  |
| COc1ccc(C[C@H](NC(=O)[C@@H]2CCCN2C(=O)[C@@H](CCCN)NC(=O)CNC(=O)[C@H](CCN)NC(=O)[C@@H](NC(=O)[C@@H](N)CCCCN)[C@@H](O)CN)C(=O)N[C@@H](CCCCN)C(=O)N/C(=C\CCNC(=N)N)C(=O)O)cc1OC [21.5] (H-K[Dab(3S-OH)][Dab]G[dOrn]P[Phe(3,4-(OMe)2)]K[ΔZArg]-OH) | − (>32 μg/mL) | ++ (≤8 μg/mL) | ++ (≤8 μg/mL) | − (>32 μg/mL) |  |  |
| N=C(N)NCC/C=C(\NC(=O)[C@H](CCCCN)NC(=O)[C@H](Cc1cnc[nH]1)NC(=O)[C@@H]1CCCN1C(=O)[C@@H](CCCN)NC(=O)CNC(=O)CNC(=O)[C@@H](NC(=O)[C@@H](N)CCCCN)[C@@H](O)CN)C(=O)N[C@@H](CCCCN)C(=O)NCCCCN [23.1] (H-K[Dab(3S-OH)]GG[dOrn]PHK[ΔZArg]K-{NH(CH2)4NH2}) | − (>32 μg/mL) | ++ (≤8 μg/mL) | ++ (≤8 μg/mL) | − (>32 μg/mL) |  |  |
| C[C@H](NC(=O)[C@@H](NC(=O)[C@@H](N)CCCCN)[C@@H](O)CN)C(=O)NCC(=O)N[C@H](CCCN)C(=O)N1CCC[C@H]1C(=O)N[C@@H](Cc1ccc(F)cc1)C(=O)N[C@@H](CCCCN)C(=O)N/C(=C\CCNC(=N)N)C(=O)O [24.102] (H-K[Dab(3S-OH)]AG[dOrn]P[Phe(4-F)]K[ΔZArg]-OH) | − (>32 μg/mL) | ++ (≤8 μg/mL) | + (≤32 μg/mL) | − (>32 μg/mL) |  |  |
| C[C@H](NC(=O)[C@H](CCN)NC(=O)[C@@H](N)CCCCN)C(=O)NCC(=O)N[C@H](CCCN)C(=O)N1CCC[C@H]1C(=O)N[C@@H](Cc1cnc[nH]1)C(=O)N[C@@H](CCCCN)C(=O)N/C(=C\CCNC(=N)N)C(=O)NCCCCCN [14.20] (H-K[Dab]AG[dOrn]PHK[ΔZArg]-{NH(CH2)5NH2}) | − (>32 μg/mL) | + (≤32 μg/mL) | − (>32 μg/mL) | − (>32 μg/mL) |  |  |
| N=C(N)NCC/C=C(\NC(=O)[C@H](CCCCN)NC(=O)[C@H](CC(F)(F)F)NC(=O)[C@@H]1CCCN1C(=O)[C@@H](CCCN)NC(=O)CNC(=O)[C@@H](NC(=O)[C@@H](NC(=O)[C@@H](N)CCCCN)[C@@H](O)CN)[C@@H](O)CN)C(=O)O [22.40] (H-K[Dab(3S-OH)][Dab(3S-OH)]G[dOrn]P[Abu(4,4,4-F3)]K[ΔZArg]-OH) | − (>32 μg/mL) | ++ (≤8 μg/mL) | + (≤32 μg/mL) | − (>32 μg/mL) |  |  |
| N=C(N)NCC/C=C(\NC(=O)[C@H](CCCCN)NC(=O)[C@H](Cc1cnc[nH]1)NC(=O)[C@@H]1CCCN1C(=O)[C@@H](CCCN)NC(=O)CNC(=O)[C@@H](NC(=O)[C@@H](NC(=O)[C@H](N)CCCCN)[C@@H](O)CN)[C@@H](O)CN)C(=O)N[C@@H](CCCCN)C(=O)NCCCCN [22.6] (H-[dK][Dab(3S-OH)][Dab(3S-OH)]G[dOrn]PHK[ΔZArg]K-{NH(CH2)4NH2}) | − (>32 μg/mL) | ++ (≤8 μg/mL) | + (≤32 μg/mL) | − (>32 μg/mL) |  |  |
